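96-well plates; 48 h exposure; 5 concentrations. Endpoints by linear interpolation between flanking doses. Not reached: highest tested concentration assigned. TGI is the concentration that stops growth completely.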
Key:
Assay in all cases: inhibition of tumour cell growth, NCI panel, 48 h
786-0 renal = tested on: 786-0 renal
BT-549 breast = tested on: BT-549 breast
CAKI-1 renal = tested on: CAKI-1 renal
HCT-116 colon = tested on: HCT-116 colon
HCT-15 colon = tested on: HCT-15 colon
HL-60(TB) leukemia = tested on: HL-60(TB) leukemia
HOP-92 NSCLC = tested on: HOP-92 NSCLC
HS 578T breast = tested on: HS 578T breast
HT29 colon = tested on: HT29 colon
MCF7 breast = tested on: MCF7 breast
NCI-H226 lung = tested on: NCI-H226 lung
NCI/ADR-RES ovarian = tested on: NCI/ADR-RES ovarian
OVCAR-4 ovarian = tested on: OVCAR-4 ovarian
SF-268 CNS = tested on: SF-268 CNS
SF-295 CNS = tested on: SF-295 CNS
SR leukemia = tested on: SR leukemia
U251 CNS = tested on: U251 CNS
UACC-62 melanoma = tested on: UACC-62 melanoma
A549 NSCLC = tested on: A549 NSCLC

| Structure (SMILES) | TGI (786-0 renal) [µM] | TGI (BT-549 breast) [µM] | TGI (CAKI-1 renal) [µM] | TGI (HCT-116 colon) [µM] | TGI (HCT-15 colon) [µM] | TGI (HL-60(TB) leukemia) [µM] | TGI (HOP-92 NSCLC) [µM] | TGI (HS 578T breast) [µM] | TGI (HT29 colon) [µM] | TGI (MCF7 breast) [µM] | TGI (NCI-H226 lung) [µM] | TGI (NCI/ADR-RES ovarian) [µM] | TGI (OVCAR-4 ovarian) [µM] | TGI (SF-268 CNS) [µM] | TGI (SF-295 CNS) [µM] | TGI (SR leukemia) [µM] | TGI (U251 CNS) [µM] | TGI (UACC-62 melanoma) [µM] | TGI (A549 NSCLC) [µM] |
| --- | --- | --- | --- | --- | --- | --- | --- | --- | --- | --- | --- | --- | --- | --- | --- | --- | --- | --- | --- |
| CCOC(=O)c1c(NC(=O)OC)c(C#N)c2n1CCCCC2 | > 100 | > 100 | > 100 | > 100 | > 100 | > 100 | > 100 | > 100 | > 100 | > 100 | > 100 | > 100 | > 100 | > 100 | > 100 | > 100 | > 100 | > 100 |  |
| O=C(CCc1cc(O)ccc1O)OCCc1ccccc1 | 24.5 | 26.6 | 27.2 | 27.3 | 27.2 | 5.92 | 13 | 67.7 | > 100 | 57.3 | > 76.3 | > 100 | 32.5 | > 50.5 | > 100 | > 100 | 29.1 | 33.9 | > 100 |
| O=C1C=CC(=O)c2c1ccc1c3ccccc3n(-c3cccc([N+](=O)[O-])c3)c21 | 3.58 | 3.31 | 5.48 | 3.91 | 7.09 | 1.29 | 4.05 | > 10 | > 10 | > 5.93 | > 10 | > 10 | > 5.95 | > 10 | > 10 | 0.961 | > 10 | > 3.16 | > 10 |
| O=C1c2cccc3cccc(c23)C(=O)N1CCCNCCCNCCCCNCCCNCCCN1C(=O)c2cccc3cccc(c23)C1=O | 6.12 | 15.1 | 29.6 | 8.17 | 30.9 | 4.64 | 22 | 13.3 | 5.5 | 1.61 | 28.6 | 46.8 | 19.1 | 12.9 | 24.4 | > 31.8 | 20.2 | 12.3 | 12.9 |
| N#Cc1[nH]c(=S)[nH]c1N | > 100 | > 100 | > 100 | > 100 | > 100 | > 100 | > 100 | > 100 | > 100 | > 100 | > 100 | > 100 | > 100 | > 100 | > 100 | > 100 | > 100 | > 100 | > 100 |
| CC(O)CCCCC(O)CCC[C@H](O)[C@H]1CCC([C@H]2CCC([C@@H](O)CCCCCCCCCCCCC3=C[C@H](C)OC3=O)O2)O1 (stereo not given in full) | 25.9 | 21.3 | 21.1 | 15.5 | 25.5 | 26.9 | 21.6 | 29 | 20.7 | 16.3 | 19.5 | 15.4 | 25.9 | 22.4 | 18.7 | 20.5 | 20.6 | 21 | 17.6 |
| CCOC(=O)c1nc2ccc(C(F)(F)F)cc2[nH]c1=O | > 100 | > 100 | > 100 | > 100 | > 100 | > 100 | > 100 | > 100 | > 100 | > 100 | > 100 | > 100 | > 100 | > 100 | > 100 | > 100 | > 100 | > 100 | > 100 |
| COc1ccc2c(c1)nc1n2C(c2c(Cl)cccc2Cl)SC1 (stereo not given) | > 100 | > 100 | > 100 | > 81.2 | > 100 | > 22.7 | > 100 | 49.4 | 85.9 | > 37.5 | > 100 | > 52.5 | > 100 | > 100 | > 70.4 | > 100 | > 65.5 | > 100 | > 100 |
| CC(=O)Oc1ccc2c(c1)c1c(=O)oc(C)nc1n2Cc1ccccc1 | > 100 | > 66.3 | 34.4 | > 100 | > 100 | > 100 | > 100 | > 100 | > 100 | > 100 | > 69.7 | > 100 | > 100 | > 100 | > 100 | > 100 | > 100 | > 31.6 | > 100 |
| CN(C)c1ccc(/C=N\NC(=O)Nc2cccc3ccccc23)cc1 | 51.5 | 72.4 | 27.9 | 65.2 | 7.23 | 7.03 | 59.5 | 23.1 | > 100 | 33 | 9.06 | 78.8 | 40.4 | 71.8 |  | > 100 | 39.5 |  | > 100 |
| Cc1cc2c(cc1C)C(=O)C1(C2)Cc2c(C)ccc(C)c2C1=O (stereo not given) | > 100 | > 100 | > 100 | > 100 | > 100 | > 100 | > 100 | > 100 |  | > 100 | > 100 | > 100 | > 100 | > 100 | > 100 | > 100 | > 100 | > 100 | > 100 |

Source: PubChem BioAssay (NCI)
